Measured values from US4089862A, “Pyridyl substituted ergoline derivatives” (Societa' Farmaceutici Italia S.p.A., priority 1976, dated 1978).

Test system: rabbit platelets
Experiment: ADP induced platelet aggregation in vitro, turbidimetric method (Born and Cross, modified)
Type: cell-based
Conditions: percent of ADP controls, rabbit PRP
Excerpt: For the relevant study on the platelet aggregation "in vitro" herein, the turbidimetric method initially described by Born and Cross (J. Physiol. 168, 178, 1963) has been followed with some changes, principally due to the use of rabbit platelets, rather than human or pig platelets, as reported in their original work: (1) Preparation of platelet-rich plasma (PRP) and platelet-poor plasma (PPP) Male rabbits weighing 2.5-3.5 kg were used. Fifty four ml of blood were withdrawn from the carotid artery of rabbits anaesthetized with ether. The blood was gently mixed with six ml of 3.8% trisodium citrate as anticoagulant. The PRP was obtained by centrifugation at 400 g for 10 minutes. The concentration of the platelets was adjusted to 250,000/mm^3 by diluting the PRP with PPP prepared by a second centrifugation of the blood samples for about 10 minutes at 2000 g. The aggregation experiments were in general performed within 1-2 hr. from the time of blood collection. (2) ADP induced platelet aggregation In the cuvette of the aggregometer, reagents were added as follows: 0.8 ml PRP, 0.2 ml drug solution or saline, and 0.2 ml ADP (adenosine diphosphate) at the molar concentration of 2.2 × 10^-4. The turbidimetry was checked after 11/2, 3 and 6 minutes. The inhibition of the aggregation is given in the table as percent of ADP controls at these three times.

[1] = 1 minute and 30 seconds after ADP, 50 γ
[2] = 1 minute and 30 seconds after ADP, 100 γ
[3] = 1 minute and 30 seconds after ADP, 200 γ

SMILES | percent inhibition of platelet aggregation [1] [%] | percent inhibition of platelet aggregation [2] [%] | percent inhibition of platelet aggregation [3] [%] | percent inhibition of platelet aggregation (3 minutes after ADP, 50 γ) [%] | percent inhibition of platelet aggregation (3 minutes after ADP, 100 γ) [%] | percent inhibition of platelet aggregation (3 minutes after ADP, 200 γ) [%] | percent inhibition of platelet aggregation (6 minutes after ADP, 50 γ) [%] | percent inhibition of platelet aggregation (6 minutes after ADP, 100 γ) [%] | percent inhibition of platelet aggregation (6 minutes after ADP, 200 γ) [%]
CO[C@]12C[C@@H](COC(=O)c3cncc(Br)c3)CN(C)[C@@H]1Cc1cn(C)c3cccc2c13 [355/347, 10-methoxy-1,6-dimethyl-8β-methanol-5-bromonicotinate, reference compound] | 11 | 24 | 40 | 12 | 21 | 50 | 22 | 33 | 60
CO[C@]12C[C@@H](CNc3ccc(Br)cn3)CN(C)[C@@H]1Cc1cn(C)c3cccc2c13 [compound 893, N-(5'-bromo-2'-pyridyl)-10α-methoxy-1,6-dimethylergoline-8β-methanamine] | 31 | 58 | 63 | 14 | 46 | 69 | 7 | 52 | 71
CO[C@]12C[C@@H](CNc3cc(C)ccn3)CN(C)[C@@H]1Cc1cn(C)c3cccc2c13 [compound 894, N-(4'-methyl-2'-pyridyl)-10α-methoxy-1,6-dimethylergoline-8β-methanamine] | 22 | 61 | 100 | 22 | 61 | 100 | 29 | 71 | 100
CO[C@]12C[C@@H](CNc3cc(C)cc(C)n3)CN(C)[C@@H]1Cc1cn(C)c3cccc2c13 [compound 897, N-(4',6'-dimethyl-2'-pyridyl)-10α-methoxy-1,6-dimethylergoline-8β-methanamine] | 31 | 62 | 89 | 22 | 51 | 91 | 25 | 56 | 92
CO[C@]12C[C@@H](CNc3ccccn3)CN(C)[C@@H]1Cc1cn(C)c3cccc2c13 [compound 925, N-(2'-pyridyl)-10α-methoxy-1,6-dimethylergoline-8β-methanamine] | 16 | 50 | 100 | 21 | 56 | 100 | 30 | 65 | 100
CO[C@]12C[C@@H](CSc3ccc([N+](=O)[O-])cn3)CN(C)[C@@H]1Cc1cn(C)c3cccc2c13 [compound 926, 5'-Nitro-2'-pyridyl-10α-methoxy-1,6-dimethylergoline-8β-methyl sulphide] | 25 | 61 | 100 | 13 | 55 | 100 | 17 | 65 | 100
